PubChem BioAssay AID1963445 (Molecular Pharmacology Branch, DTP, NCI, 2024)

Tested on: MCF7 complex spheroid growth, % test/control
Experiment: Anticancer human tumor MCF7 cell line growth inhibition [Asc];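 note: spheroids exposed to compounds for 7 days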;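 for viability, T/C: 100% = DMSO vehicle control wells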
Conditions: for IC50: curve of first compound; for viability, T/C: stronger effect = lower value; active = viability on the fitted dose curve at most 10% of control; inactive = the rest
Summary of the method: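 Concentration series start at each agent's clinical Cmax, or at 10 microM when none is established, and drop in half-log steps; agents are applied alone or together to complex spheroids built with HUVEC and hMSC.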

[1] = second compound 0.00316 µM, first compound 0.0316 µM
[2] = second compound 0.00316 µM, first compound 0.1 µM
[3] = second compound 0.00316 µM, first compound 0.316 µM
[4] = second compound 0.00316 µM, first compound 1 µM
[5] = second compound 0.00316 µM, first compound 3.16 µM
[6] = second compound 0.00316 µM, first compound 10 µM
[7] = second compound 0.01 µM, first compound 0.0316 µM
[8] = second compound 0.01 µM, first compound 0.1 µM
[9] = second compound 0.01 µM, first compound 0.316 µM
[10] = second compound 0.01 µM, first compound 1 µM
[11] = second compound 0.01 µM, first compound 3.16 µM
[12] = second compound 0.01 µM, first compound 10 µM
[13] = second compound 0.0316 µM, first compound 0.0316 µM
[14] = second compound 0.0316 µM, first compound 0.1 µM
[15] = second compound 0.0316 µM, first compound 0.316 µM
[16] = second compound 0.0316 µM, first compound 1 µM
[17] = second compound 0.0316 µM, first compound 3.16 µM
[18] = second compound 0.0316 µM, first compound 10 µM
[19] = second compound 0.1 µM, first compound 0.0316 µM
[20] = second compound 0.1 µM, first compound 0.1 µM
[21] = second compound 0.1 µM, first compound 0.316 µM
[22] = second compound 0.1 µM, first compound 1 µM
[23] = second compound 0.1 µM, first compound 3.16 µM
[24] = second compound 0.1 µM, first compound 10 µM
[25] = second compound 0.316 µM, first compound 0.0316 µM
[26] = second compound 0.316 µM, first compound 0.1 µM
[27] = second compound 0.316 µM, first compound 0.316 µM
[28] = second compound 0.316 µM, first compound 1 µM
[29] = second compound 0.316 µM, first compound 3.16 µM
[30] = second compound 0.316 µM, first compound 10 µM
[31] = second compound 1 µM, first compound 0.0316 µM
[32] = second compound 1 µM, first compound 0.1 µM
[33] = second compound 1 µM, first compound 0.316 µM
[34] = second compound 1 µM, first compound 1 µM
[35] = second compound 1 µM, first compound 3.16 µM
[36] = second compound 1 µM, first compound 10 µM

C#Cc1c(F)ccc2cc(O)cc(-c3ncc4c(N5CC6CCC(C5)N6)nc(OCC56CCCN5CC(F)C6)nc4c3F)c12 (stereo unspecified) + CNC(C)C(=O)NC1CN(S(=O)(=O)c2cccc(S(=O)(=O)N3CCC4CCC(C(=O)NC(c5ccccc5)c5ccccc5)N4C(=O)C(NC(=O)C(C)NC)C3)c2)CCC2CCC(C(=O)NC(c3ccccc3)c3ccccc3)N2C1=O
active: viability, T/C [5] 11.3% | viability, T/C [6] 2.37% | viability, T/C [10] 11.8% | viability, T/C [11] 9.39% | viability, T/C [12] 4.11% | viability, T/C [16] 11.4% | viability, T/C [17] 9.52% | viability, T/C [18] 3.7% | viability, T/C [22] 11.2% | viability, T/C [23] 11.4% | viability, T/C [24] 3.67% | viability, T/C [28] 10.8% | viability, T/C [29] 11.4% | viability, T/C [30] 2.21% | viability, T/C [34] 10.6% | viability, T/C [35] 8.64% | viability, T/C [36] 1.87%
inactive: viability, T/C [1] 41.9% | viability, T/C [2] 44.3% | viability, T/C [3] 16.3% | viability, T/C [4] 18.9% | viability, T/C [7] 19% | viability, T/C [8] 12.6% | viability, T/C [9] 12.2% | viability, T/C [13] 11.6% | viability, T/C [14] 12.4% | viability, T/C [15] 10.9% | viability, T/C [19] 12.5% | viability, T/C [20] 10.4% | viability, T/C [21] 11.9% | viability, T/C [25] 12.8% | viability, T/C [26] 12.9% | viability, T/C [27] 12.2% | viability, T/C [31] 13.9% | viability, T/C [32] 12.2% | viability, T/C [33] 13%
< 31.6 nM: IC50 (second compound 0.00316 µM) | IC50 (second compound 0.01 µM) | IC50 (second compound 0.0316 µM) | IC50 (second compound 0.1 µM) | IC50 (second compound 0.316 µM) | IC50 (second compound 1 µM)

C=C(F)C(=O)N1CCN(c2nc(OCC3CCCN3C)nc3c2CCN(c2cccc4cccc(Cl)c24)C3)CC1CC#N (stereo unspecified) + CNC(C)C(=O)NC1CN(S(=O)(=O)c2cccc(S(=O)(=O)N3CCC4CCC(C(=O)NC(c5ccccc5)c5ccccc5)N4C(=O)C(NC(=O)C(C)NC)C3)c2)CCC2CCC(C(=O)NC(c3ccccc3)c3ccccc3)N2C1=O
< 31.6 nM: IC50 (second compound 0.00316 µM) | IC50 (second compound 0.01 µM) | IC50 (second compound 0.0316 µM) | IC50 (second compound 0.1 µM) | IC50 (second compound 0.316 µM) | IC50 (second compound 1 µM)
active: viability, T/C [5] 1.96% | viability, T/C [6] 0.09% | viability, T/C [10] 9.45% | viability, T/C [11] 2.95% | viability, T/C [12] 0.08% | viability, T/C [15] 10.1% | viability, T/C [16] 7.62% | viability, T/C [17] 2.55% | viability, T/C [18] 0.08% | viability, T/C [21] 11% | viability, T/C [22] 7.97% | viability, T/C [23] 1.68% | viability, T/C [24] 0.08% | viability, T/C [27] 11.9% | viability, T/C [28] 7.65% | viability, T/C [29] 2.03% | viability, T/C [30] 0.1% | viability, T/C [33] 10.3% | viability, T/C [34] 7.96% | viability, T/C [35] 1.41% | viability, T/C [36] 0.18%
inactive: viability, T/C [1] 47.7% | viability, T/C [2] 38.8% | viability, T/C [3] 29.2% | viability, T/C [4] 15.9% | viability, T/C [7] 14% | viability, T/C [8] 12% | viability, T/C [9] 15% | viability, T/C [13] 13.4% | viability, T/C [14] 9.36% | viability, T/C [19] 12% | viability, T/C [20] 10.8% | viability, T/C [25] 12% | viability, T/C [26] 12% | viability, T/C [31] 12.6% | viability, T/C [32] 10.9%

CCN1C(C(=O)NC23CCC(C(=O)O)(CC2)CC3)C(c2cccc(Cl)c2F)C2(C(=O)Nc3cc(Cl)ccc32)C12CCCCC2 (stereo unspecified) + CNC(C)C(=O)NC1CN(S(=O)(=O)c2cccc(S(=O)(=O)N3CCC4CCC(C(=O)NC(c5ccccc5)c5ccccc5)N4C(=O)C(NC(=O)C(C)NC)C3)c2)CCC2CCC(C(=O)NC(c3ccccc3)c3ccccc3)N2C1=O
active: viability, T/C (second compound 0.00316 µM, first compound 0.0949 µM) 10.8% | viability, T/C (second compound 0.00316 µM, first compound 0.3 µM) 11% | viability, T/C (second compound 0.00316 µM, first compound 0.949 µM) 8.86% | viability, T/C (second compound 0.00316 µM, first compound 3 µM) 5.04% | viability, T/C (second compound 0.01 µM, first compound 0.03 µM) 8.24% | viability, T/C (second compound 0.01 µM, first compound 0.0949 µM) 8.54% | viability, T/C (second compound 0.01 µM, first compound 0.3 µM) 5.55% | viability, T/C (second compound 0.01 µM, first compound 0.949 µM) 5.82% | viability, T/C (second compound 0.01 µM, first compound 3 µM) 5.04% | viability, T/C (second compound 0.0316 µM, first compound 0.03 µM) 8.85% | viability, T/C (second compound 0.0316 µM, first compound 0.0949 µM) 5.62% | viability, T/C (second compound 0.0316 µM, first compound 0.3 µM) 5.69% | viability, T/C (second compound 0.0316 µM, first compound 0.949 µM) 4.2% | viability, T/C (second compound 0.0316 µM, first compound 3 µM) 5.94% | viability, T/C (second compound 0.1 µM, first compound 0.03 µM) 10.7% | viability, T/C (second compound 0.1 µM, first compound 0.0949 µM) 6.73% | viability, T/C (second compound 0.1 µM, first compound 0.3 µM) 6.23% | viability, T/C (second compound 0.1 µM, first compound 0.949 µM) 4.67% | viability, T/C (second compound 0.1 µM, first compound 3 µM) 5.57% | viability, T/C (second compound 0.316 µM, first compound 0.03 µM) 10.7% | viability, T/C (second compound 0.316 µM, first compound 0.0949 µM) 7.04% | viability, T/C (second compound 0.316 µM, first compound 0.3 µM) 5.56% | viability, T/C (second compound 0.316 µM, first compound 0.949 µM) 5.97% | viability, T/C (second compound 0.316 µM, first compound 3 µM) 6.29% | viability, T/C (second compound 1 µM, first compound 0.0949 µM) 9.54% | viability, T/C (second compound 1 µM, first compound 0.3 µM) 5.59% | viability, T/C (second compound 1 µM, first compound 0.949 µM) 4.74% | viability, T/C (second compound 1 µM, first compound 3 µM) 6.71%
inactive: viability, T/C (second compound 0.00316 µM, first compound 0.00949 µM) 40.9% | viability, T/C (second compound 0.00316 µM, first compound 0.03 µM) 14.3% | viability, T/C (second compound 0.01 µM, first compound 0.00949 µM) 11.4% | viability, T/C (second compound 0.0316 µM, first compound 0.00949 µM) 11.9% | viability, T/C (second compound 0.1 µM, first compound 0.00949 µM) 12% | viability, T/C (second compound 0.316 µM, first compound 0.00949 µM) 12.5% | viability, T/C (second compound 1 µM, first compound 0.00949 µM) 11.2% | viability, T/C (second compound 1 µM, first compound 0.03 µM) 12.5%
< 9.49 nM: IC50 (second compound 0.00316 µM) | IC50 (second compound 0.01 µM) | IC50 (second compound 0.0316 µM) | IC50 (second compound 0.1 µM) | IC50 (second compound 0.316 µM) | IC50 (second compound 1 µM)
